From ChEMBL document CHEMBL1201862, “PubChem BioAssay data set” (2004)
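Test compounds were applied to cells in 96-well plates for 48 hours at 5 doses. GI50: concentration for 50% inhibition of growth.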 Activity calls are given as the source filed them. No stated cut-off is given here; in the data, active = GI50 up to about 1.1 µM and inactive = higher.

What was measured:
Assay in all cases: NCI tumour cell line growth inhibition, 48 h
[1] = tested on: 786-0
[2] = tested on: A498
[3] = tested on: A549
[4] = tested on: ACHN
[5] = tested on: BT-549
[6] = tested on: CAKI-1
[7] = tested on: CCRF-CEM
[8] = tested on: COLO 205
[9] = tested on: DU-145
[10] = tested on: EKVX
[11] = tested on: HCC 2998
[12] = tested on: HCT-116
[13] = tested on: HCT-15
[14] = tested on: HL-60
[15] = tested on: HOP-62
[16] = tested on: HOP-92
[17] = tested on: Hs-578T
[18] = tested on: IGROV-1
[19] = tested on: K562
[20] = tested on: KM12
[21] = tested on: LOX IMVI
[22] = tested on: M14
[23] = tested on: MCF7
[24] = tested on: MDA-MB-231
[25] = tested on: MDA-MB-435
[26] = tested on: MOLT-4
[27] = tested on: Malme-3M
[28] = tested on: NCI-H226
[29] = tested on: NCI-H23
[30] = tested on: NCI-H460
[31] = tested on: NCI-H522
[32] = tested on: NCI/ADR-RES
[33] = tested on: OVCAR-3
[34] = tested on: OVCAR-4
[35] = tested on: OVCAR-5
[36] = tested on: OVCAR-8
[37] = tested on: PC-3
[38] = tested on: RPMI-8226
[39] = tested on: RXF 393
[40] = tested on: SF-268
[41] = tested on: SF-295
[42] = tested on: SF-539
[43] = tested on: SK-MEL-28
[44] = tested on: SK-MEL-2
[45] = tested on: SK-MEL-5
[46] = tested on: SK-OV-3
[47] = tested on: SN12C
[48] = tested on: SNB-19
[49] = tested on: SNB-75
[50] = tested on: SR
[51] = tested on: SW-620
[52] = tested on: T47D
[53] = tested on: TK-10
[54] = tested on: U-251
[55] = tested on: UACC-257
[56] = tested on: UACC-62
[57] = tested on: UO-31
[58] = tested on: HT-29
[59] = tested on: MDA-N

Measured: GI50

Fc1ccccc1/N=c1\oc2ccc(Br)cc2cc1-c1nc2ccccc2[nH]1
30.1 µM: [13]
active: [17] 0.485 µM | [40] 0.522 µM
inactive: [1] 3.18 µM | [2] 2.58 µM | [3] 7.01 µM | [4] 6.9 µM | [5] 7.93 µM | [6] 9.55 µM | [7] > 100 µM | [8] 35.6 µM | [9] 17.1 µM | [10] 9.29 µM | [11] 10.4 µM | [12] 8.61 µM | [14] > 100 µM | [15] 3.65 µM | [16] 18 µM | [18] 8.95 µM | [19] > 25.6 µM | [20] > 20.7 µM | [21] 13.2 µM | [22] 11.2 µM | [23] 14.8 µM | [24] 6.7 µM | [25] 23.1 µM | [26] > 30.8 µM | [27] 2.32 µM | [28] 4.26 µM | [29] 7.33 µM | [30] 15 µM | [31] 1.75 µM | [32] 10 µM | [33] 6.15 µM | [34] 5.96 µM | [35] 34.8 µM | [36] 9.23 µM | [37] 7.4 µM | [38] 28 µM | [39] 7.64 µM | [41] 5.48 µM | [42] 1.87 µM | [43] 14.5 µM | [44] 8.18 µM | [45] 8.49 µM | [46] 10.7 µM | [47] 16.6 µM | [48] 4.26 µM | [49] 1.84 µM | [50] > 25.6 µM | [51] > 21.9 µM | [52] 38.3 µM | [53] 6.59 µM | [54] 6 µM | [55] > 19.8 µM | [56] 12.8 µM | [57] 8.04 µM

C=C[C@@H](C)[C@H](NS(=O)(=O)c1ccc(C)cc1)C(=O)OCC
inactive: [1] 40.8 µM | [2] 48.5 µM | [3] 32 µM | [4] 35.6 µM | [5] 76.4 µM | [7] 28.2 µM | [8] 52.2 µM | [9] 37.1 µM | [10] 30.8 µM | [12] 35.5 µM | [14] 57 µM | [15] > 100 µM | [58] 27.2 µM | [17] 19.7 µM | [18] 25.8 µM | [19] 39.7 µM | [20] 28.1 µM | [21] 19.7 µM | [22] 54.1 µM | [23] 28.8 µM | [24] > 100 µM | [25] 21.4 µM | [59] 28 µM | [26] 50.6 µM | [27] 39.7 µM | [28] > 100 µM | [29] 39.4 µM | [30] 42.2 µM | [31] 20.6 µM | [32] 41.3 µM | [33] 20.7 µM | [34] 27.2 µM | [35] 26.2 µM | [36] 40.2 µM | [37] 32.4 µM | [38] 14 µM | [39] 42.3 µM | [40] 32 µM | [41] 21.2 µM | [42] > 100 µM | [43] 35.9 µM | [44] 33.3 µM | [46] 36.6 µM | [47] > 100 µM | [48] 74 µM | [49] 15.3 µM | [50] 30.8 µM | [51] 40.3 µM | [53] 52.6 µM | [54] 33.5 µM | [55] 24.9 µM | [56] 12.8 µM | [57] 31.3 µM
31.3 µM: [13]
